Data set [1] in a line: AUC in CD-1 mouse at 10 mg/kg, po administered as single dose via gavage by LC-MS/MS analysis. The conditions noted are these: in vivo. The class given is ADME, organism-based. Details: dose 10 mg/kg.
Data set [2] can be described thus: Oral bioavailability in CD-1 mouse at 10 mg/kg administered as single dose via gavage by LC-MS/MS analysis. The format is ADME, organism-based. The conditions noted are these: in vivo.
Data set [3] relates to MDA-MB-231. Briefly: Antitumor activity against human MDA-MB-231 cells xenografted in SCID mouse assessed as tumor growth at 150 mg/kg, po administered twice daily for 28 days measured post last dose relative to control. The class given is functional. The conditions noted are these: time 28 day.
The nature of data set [4]: Tmax in CD-1 mouse at 10 mg/kg, po administered as single dose via gavage by LC-MS/MS analysis. The class given is ADME, organism-based. The conditions noted are these: in vivo.
The nature of data set [5]: Cmax in CD-1 mouse at 10 mg/kg, po administered as single dose via gavage by LC-MS/MS analysis. The class given is ADME, organism-based. Set-up: route oral, dose 10 mg/kg. The conditions noted are these: in vivo.
A short description of data set [6]: Half life in CD-1 mouse at 10 mg/kg, po administered as single dose via gavage by LC-MS/MS analysis. The settings on record: in vivo. The format is ADME, organism-based.
Data set [7] can be described thus: Tmax in Beagle dog at 10 mg/kg, po administered as single dose via gavage by LC-MS/MS analysis. The format is ADME, organism-based, Canis lupus familiaris. The conditions noted are these: in vivo.
A short description of data set [8]: Cmax in Beagle dog at 10 mg/kg, po administered as single dose via gavage by LC-MS/MS analysis. The class given is ADME, organism-based, Canis lupus familiaris. Set-up: route oral, dose 10 mg/kg. The settings on record: in vivo.
Data set [9] is described as follows: AUC in Beagle dog at 10 mg/kg, po administered as single dose via gavage by LC-MS/MS analysis. The format is ADME, organism-based, Canis lupus familiaris. Details: dose 10 mg/kg. The settings on record: in vivo.
A short description of data set [10]: Half life in Beagle dog at 10 mg/kg, po administered as single dose via gavage by LC-MS/MS analysis. The conditions noted are these: in vivo. The format is ADME, organism-based, Canis lupus familiaris.
The nature of data set [11]: Oral bioavailability in Beagle dog at 10 mg/kg administered as single dose via gavage by LC-MS/MS analysis. The class given is ADME, organism-based, Canis lupus familiaris. The conditions noted are these: in vivo.
Data set [12] deals with K562. The data set is described as follows: Antiproliferative activity against human K562 cells measured after 96 hrs by MTT assay. The class given is functional, cell-based. The settings on record: K562, 96 h. For orientation: Tetrazolium assays rely on reduction of a dye to a coloured formazan, in cell work by metabolically active cells.
Data set [13] deals with MDA-MB-231. Briefly: Antiproliferative activity against human MDA-MB-231 cells measured after 96 hrs by CellTiter 96 Aqueous One Solution Reagent based assay. The class given is functional, cell-based. The settings on record: MDA-MB-231, 96 h.
The test system of another data set is MDA-MB-468. Briefly: Antiproliferative activity against human MDA-MB-468 cells measured after 96 hrs by CellTiter 96 Aqueous One Solution Reagent based assay. The class given is functional, cell-based. The settings on record: MDA-MB-468, 96 h.
Data set [14] relates to K562. The data set is described as follows: Antiproliferative activity against human K562 cells measured after 96 hrs by CellTiter 96 Aqueous One Solution Reagent based assay. The format is functional, cell-based. The settings on record: K562, 96 h.
In data set [15] the test system is HeLa. The data set is described as follows: Antiproliferative activity against human HeLa cells measured after 96 hrs by CellTiter 96 Aqueous One Solution Reagent based assay. The format is functional, cell-based.
In data set [16] the target is T1, HEC1/NEK2 (Homo sapiens) (UniProt P51955+O14777). Briefly: Inhibition of Hec1-Nek2 protein-protein interaction in human K562 cells at 100 nM measured after 6 hrs by coimmunoprecipitation assay. The format is cell-based.
Data set [17] concerns the target T1, HEC1/NEK2 (Homo sapiens). The data set is described as follows: Inhibition of Hec1-Nek2 protein-protein interaction in human K562 cells assessed as reduction in Nek2 level at 1 uM by Western blot analysis. The settings on record: TDE = time-dependent effect. The format is cell-based. (Immunoblotting shows a protein as a band on a membrane.)
Data set [18] concerns HeLa. Briefly: Induction of apoptosis in human HeLa cells assessed as increase in cleaved caspase 3 protein expression at 1 uM measured after 24 hrs by Western blot analysis. The class given is functional, cell-based.
For data set [19], the system named is HeLa. The data set is described as follows: Induction of apoptosis in human HeLa cells assessed as increase in cleaved PARP protein expression at 1 uM measured after 24 hrs by Western blot analysis. The class given is functional, cell-based.
For data set [20], the system named is HeLa. The data set is described as follows: Induction of apoptosis in human HeLa cells assessed as decrease in Mcl-1 expression at 1 uM measured after 24 hrs by Western blot analysis. The format is functional, cell-based.
The test system of data set [21] is HeLa. The data set is described as follows: Induction of apoptosis in human HeLa cells assessed as decrease in XIAP expression at 1 uM measured after 24 hrs by Western blot analysis. The format is functional, cell-based.
The test system of data set [22] is HeLa. Briefly: Induction of apoptosis in human HeLa cells assessed as decrease in cyclin A1 expression at 1 uM measured after 24 hrs by Western blot analysis. The class given is functional, cell-based.
Data set [23] concerns HeLa. Briefly: Induction of apoptosis in human HeLa cells assessed as decrease in cyclin B1 expression at 1 uM measured after 24 hrs by Western blot analysis. The class given is functional, cell-based.
The subject of data set [24] is HeLa. Briefly: Induction of apoptosis in human HeLa cells assessed as decrease in cyclin D1 expression at 1 uM measured after 24 hrs by Western blot analysis. The format is functional, cell-based.
The subject of another data set is MES-SA/Dx5. Briefly: Antiproliferative activity against human MES-SA/Dx5 cells measured after 96 hrs by CellTiter 96 Aqueous One Solution Reagent based assay. The class given is functional, cell-based.
The test system of the next data set is NCI/ADR-RES. The data set is described as follows: Antiproliferative activity against human NCI/ADR-RES cells measured after 96 hrs by CellTiter 96 Aqueous One Solution Reagent based assay. The class given is functional, cell-based.
Data set [25] has as its system HeLa. Briefly: Down regulation of Pgp expression in human HeLa cells. The class given is functional, cell-based.
In data set [26] the test system is MDA-MB-231. The data set is described as follows: Down regulation of Pgp expression in human MDA-MB-231 cells. The class given is functional, cell-based.

Each structure is given as a SMILES string. Active and inactive are the calls of the source.

What is called AUC is the area under the concentration-time curve, a measure of exposure. The low end stands for less exposure, the high end for more exposure. The term bioavailability denotes dose-corrected exposure relative to a reference, in per cent. As usually defined, the T/C is the result in the treated group divided by that in the control group, in per cent. For orientation: Tmax means the time from dosing to the highest level. As a reminder, the Cmax is the peak of the concentration-time curve. As usually defined, the half-life is the time needed for the level to fall by half in the phase considered. The low end stands for rapid decline, the high end for slow decline. Broadly, the IC50 is the point on the concentration scale where inhibition reaches its midpoint. Read a high IC50 as weaker potency.

T1 sequence (O14777 whole entry, looked up): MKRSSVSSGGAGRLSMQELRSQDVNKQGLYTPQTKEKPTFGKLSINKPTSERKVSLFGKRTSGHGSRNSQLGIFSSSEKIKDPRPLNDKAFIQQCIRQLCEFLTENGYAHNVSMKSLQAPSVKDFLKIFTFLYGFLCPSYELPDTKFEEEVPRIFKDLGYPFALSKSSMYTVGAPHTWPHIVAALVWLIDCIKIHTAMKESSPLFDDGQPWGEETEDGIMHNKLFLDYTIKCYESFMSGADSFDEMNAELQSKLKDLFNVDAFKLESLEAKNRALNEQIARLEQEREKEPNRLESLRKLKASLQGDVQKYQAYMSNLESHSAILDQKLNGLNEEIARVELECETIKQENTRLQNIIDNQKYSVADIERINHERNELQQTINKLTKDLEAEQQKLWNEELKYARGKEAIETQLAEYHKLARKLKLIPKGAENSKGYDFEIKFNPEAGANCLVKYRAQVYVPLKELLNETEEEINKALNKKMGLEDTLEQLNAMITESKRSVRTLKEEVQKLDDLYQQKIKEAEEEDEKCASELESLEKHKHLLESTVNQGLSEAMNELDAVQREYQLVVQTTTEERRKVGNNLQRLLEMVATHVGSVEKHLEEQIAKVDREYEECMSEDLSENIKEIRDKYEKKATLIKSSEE
T1 sequence (P51955 whole entry, looked up): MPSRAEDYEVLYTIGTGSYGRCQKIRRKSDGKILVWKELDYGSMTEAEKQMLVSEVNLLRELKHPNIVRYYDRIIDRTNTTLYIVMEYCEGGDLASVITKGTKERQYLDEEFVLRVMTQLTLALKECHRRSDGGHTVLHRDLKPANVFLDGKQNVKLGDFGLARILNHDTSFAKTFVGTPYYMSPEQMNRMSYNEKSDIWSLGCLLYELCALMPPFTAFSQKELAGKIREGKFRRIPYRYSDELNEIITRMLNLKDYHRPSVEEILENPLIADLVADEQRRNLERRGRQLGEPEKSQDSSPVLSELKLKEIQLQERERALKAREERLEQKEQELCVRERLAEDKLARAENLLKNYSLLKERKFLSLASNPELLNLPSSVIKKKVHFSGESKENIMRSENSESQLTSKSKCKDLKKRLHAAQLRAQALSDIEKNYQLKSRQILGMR

As to `COCCOc1cnc(Sc2cc(C)c(-c3csc(NC(=O)c4ccncc4)n3)c(C)c2)cn1.Cl`, the AUC in data set [1] is 50.9 µM·h. This compound also yielded a bioavailability in [2] of 84%.
Turning to `COc1ccc(Oc2cc(C)c(-c3csc(NC(=O)c4ccncc4)n3)c(C)c2)cc1`, the T/C with MDA-MB-231 [3] was 50%.
Take `COCCOc1cnc(Sc2cc(C)c(-c3csc(NC(=O)c4ccncc4)n3)c(C)c2)cn1.CS(=O)(=O)O`: the exposure (AUC) in data set [1] is 47.5 µM·h. For the same compound, the bioavailability in data set [2] was determined as 58.5%. For the same compound, in data set [4], the time of peak concentration (Tmax) came to 1.5 h. The compound also displayed a Cmax in data set [5] of 8.44 µM. The half-life in [6] was 3.38 h.
In the case of `COCCOc1cnc(Sc2cc(C)c(-c3csc(NC(=O)c4ccncc4)n3)c(C)c2)cn1.Cc1ccc(S(=O)(=O)O)cc1`, the area under the curve (AUC) in data set [1] worked out at 62.5 µM·h; in data set [9] it was 8.61 µM·h. The results for the bioavailability in data set [2] and in data set [11] were 77.4% and 24.9%, respectively. Moreover, the time of peak concentration (Tmax) in data set [4] and in data set [7] was 1 h each time. In addition, the peak concentration (Cmax) in data set [5] stood at 8.13 µM; in data set [8], 0.98 µM. Besides, the figures for the half-life in data set [6] and in [10] were 2.81 h and 4.53 h, respectively.
Take `Cc1cc(C)c(-c2csc(NC(=O)/C=C/c3ccc(C(C)(C)C)cc3)n2)c(C)c1`: the IC50 with K562 [12] worked out at 790 nM.
Regarding `Cc1cc(Sc2cnc(OCCN(C)C)cn2)cc(C)c1-c1csc(NC(=O)c2ccncc2)n1`, the half-maximal inhibitory concentration (IC50) in the data set with MDA-MB-231 [13] was 94.5 nM; with MDA-MB-468, 53.9 nM; with K562 [14], 59.2 nM; in the data set with HeLa [15] it was 32.8 nM. The compound also gave an exposure (AUC) in data set [1] of 13.9 µM·h.
Turning to `COCCOc1cnc(Sc2cc(C)c(-c3csc(NC(=O)c4ccncc4)n3)c(C)c2)cn1`, the inhibition result at HEC1/NEK2 (Homo sapiens) [16] was “Active”. The Activity entry at HEC1/NEK2 (Homo sapiens) [17] was “Tde”. Besides, the result in the data set with HeLa [18], in the data set with HeLa [19], in the data set on HeLa [20], in the data set with HeLa [21], in the data set with HeLa [22] and with HeLa [23] was Active. The result in the data set with HeLa [24], with MES-SA/Dx5, with NCI/ADR-RES, in the data set on HeLa [25] and with MDA-MB-231 [26] was Active.

(Values after ChEMBL document CHEMBL4680212, “Discovery of T-1101 tosylate as a first-in-class clinical candidate for Hec1/Nek2 inhibition in cancer therapy” (Eur J Med Chem, 2020).)
